In paper PMC9570109, “Improved Trimethylangelicin Analogs for Cystic Fibrosis: Design, Synthesis and Preliminary Screening” (International Journal of Molecular Sciences, 2022):

What was measured:
Type in all cases: cell-based
[1] = system: Salmonella typhimurium TA98; assay: Ames mutagenicity assay, plate incorporation, TA98
Method: (§1) The mutagenicity assay was performed for the test compounds following the plate incorporation method with the histidine-requiring Salmonella typhimurium mutant TA97A, TA98, TA100, and TA1535 strains purchased by Molecular Toxicology Inc. (Boone, NC, USA; moltox.com). All strains (100 µL per plate of fresh overnight cultures) were checked with and without the addition of 0.5 mL of a 5% S9 exogenous metabolic activator (S9 mix). The lyophilized post-mitochondrial supernatant S9 mix (Aroclor 1254-induced, Sprague–Dawley male rat liver in 0.154 M KCl solution), commonly used for the activation of pro-mutagens in mutagenic metabolites (Molecular Toxicology, Inc., Boone, NC, USA), was stored at −80 °C before use. The concentration tested for all the samples were 5, 10, 20, 50, and 100 µL/plate from a stock solution of 500 nM. A fully grown culture of the appropriate tester strain (0.1 mL) was added to 2 mL molten top agar (0.6% agar, 0.6% NaCl, 0.5 mM L-histidine/biotin solution) at 46 °C, together with 0.1 mL of each sample solution at different concentrations, and 0.5 mL S9 mix for assays with metabolic activation. The ingredients were thoroughly mixed and poured onto minimal glucose agar plates (1.5% agar in 2% Vogel–Bonner medium E with 5% glucose solution). DMSO was used as negative a control (100 µL/plate). Positive controls were prepared as follows: 2-aminoanthracene (2 µg/plate) and 2-nitrofluorene (2 µg/plate) for TA 97A, TA98 and TA1535 with and without metabolic activator (S9 mix), respectively; 2-aminoanthracene (2 µg/plate) and sodium azide (2 µg/plate) for TA100, with and without metabolic activator (S9 mix), respectively. The plates were incubated at 37 °C for 72 h and then his+ revertants were checked and counted using a Colony Counter 560 Suntex (Antibioticos, Italy). A sample was considered mutagenic when the observed number of colonies was at least twofold over the spontaneous level of revertants. All determinations were made in triplicate. Statistical analysis: relative standard deviations were calculated using the statistical software STATISTICA 6.0 (StatSoft, Italia srl, Vigonza, Italy). […]
(§2) Salmonella typhimurium TA97A Salmonella typhimurium TA98 Salmonella typhimurium TA100 Salmonella typhimurium 1535 […]
(§3) average SD t/c average SD t/c average SD t/c average SD t/c average SD t/c average SD t/c average SD t/c average SD t/c […]
(§4) *Significant values according to Ames computation (Maron & Ames, 1983); DMSO, C+: negative and positive controls respectively; SD: Standard Deviation; t/c: number of revertant colonies in treated plates/number of revertant colonies in […]

[2] = system: Salmonella typhimurium TA100; assay: Ames mutagenicity assay, plate incorporation, TA100
Method: as §1, §2, §3, §4

[3] = system: Salmonella typhimurium 1535; assay: Ames mutagenicity assay, plate incorporation, TA1535
Method: as §1, §2, §3, §4

[4] = TA98, +S9, 5 µL/plate of 500 nM stock
[5] = TA98, +S9, 10 µL/plate of 500 nM stock
[6] = TA98, +S9, 20 µL/plate of 500 nM stock
[7] = TA98, +S9, 50 µL/plate of 500 nM stock
[8] = TA98, +S9, 100 µL/plate of 500 nM stock
[9] = TA98, -S9, 5 µL/plate of 500 nM stock
[10] = TA98, -S9, 10 µL/plate of 500 nM stock
[11] = TA98, -S9, 20 µL/plate of 500 nM stock
[12] = TA98, -S9, 50 µL/plate of 500 nM stock
[13] = TA98, -S9, 100 µL/plate of 500 nM stock
[14] = TA100, +S9, 5 µL/plate of 500 nM stock
[15] = TA100, +S9, 10 µL/plate of 500 nM stock
[16] = TA100, +S9, 20 µL/plate of 500 nM stock
[17] = TA100, +S9, 50 µL/plate of 500 nM stock
[18] = TA100, +S9, 100 µL/plate of 500 nM stock
[19] = TA100, -S9, 5 µL/plate of 500 nM stock
[20] = TA100, -S9, 10 µL/plate of 500 nM stock
[21] = TA100, -S9, 20 µL/plate of 500 nM stock
[22] = TA100, -S9, 50 µL/plate of 500 nM stock
[23] = TA100, -S9, 100 µL/plate of 500 nM stock
[24] = 1535, +S9, 5 µL/plate of 500 nM stock
[25] = 1535, +S9, 10 µL/plate of 500 nM stock
[26] = 1535, +S9, 20 µL/plate of 500 nM stock
[27] = 1535, +S9, 50 µL/plate of 500 nM stock
[28] = 1535, +S9, 100 µL/plate of 500 nM stock
[29] = 1535, -S9, 5 µL/plate of 500 nM stock
[30] = 1535, -S9, 10 µL/plate of 500 nM stock
[31] = 1535, -S9, 20 µL/plate of 500 nM stock
[32] = 1535, -S9, 50 µL/plate of 500 nM stock
[33] = 1535, -S9, 100 µL/plate of 500 nM stock

## Cc1cc2c(-c3ccccc3)cc(=O)oc2c2c(C)coc12 [4-PhDMA]
[1]; [4]
  revertant colonies, average: 47.0
  t/c (revertant colonies treated/untreated plates): 1.0
[1]; [5]
  revertant colonies, average: 49.0
  t/c (revertant colonies treated/untreated plates): 1.1
[1]; [6]
  revertant colonies, average: 52.5
  t/c (revertant colonies treated/untreated plates): 1.1
[1]; [7]
  revertant colonies, average: 47.5
  t/c (revertant colonies treated/untreated plates): 1.0
[1]; [8]
  revertant colonies, average: 47.5
  t/c (revertant colonies treated/untreated plates): 1.0
[1]; [9]
  revertant colonies, average: 39.0
  t/c (revertant colonies treated/untreated plates): 1.0
[1]; [10]
  revertant colonies, average: 42.0
  t/c (revertant colonies treated/untreated plates): 1.1
[1]; [11]
  revertant colonies, average: 38.5
  t/c (revertant colonies treated/untreated plates): 1.0
[1]; [12]
  revertant colonies, average: 41.0
  t/c (revertant colonies treated/untreated plates): 1.1
[1]; [13]
  revertant colonies, average: 41.0
  t/c (revertant colonies treated/untreated plates): 1.1
[2]; [14]
  revertant colonies, average: 159.5
  t/c (revertant colonies treated/untreated plates): 0.9
[2]; [15]
  revertant colonies, average: 193.0
  t/c (revertant colonies treated/untreated plates): 1.1
[2]; [16]
  revertant colonies, average: 193.5
  t/c (revertant colonies treated/untreated plates): 1.1
[2]; [17]
  revertant colonies, average: 187.5
  t/c (revertant colonies treated/untreated plates): 1.1
[2]; [18]
  revertant colonies, average: 197.0
  t/c (revertant colonies treated/untreated plates): 1.2
[2]; [19]
  revertant colonies, average: 208.5
  t/c (revertant colonies treated/untreated plates): 1.1
[2]; [20]
  revertant colonies, average: 198.5
  t/c (revertant colonies treated/untreated plates): 1.0
[2]; [21]
  revertant colonies, average: 207.0
  t/c (revertant colonies treated/untreated plates): 1.1
[2]; [22]
  revertant colonies, average: 184.5
  t/c (revertant colonies treated/untreated plates): 0.9
[2]; [23]
  revertant colonies, average: 179.0
  t/c (revertant colonies treated/untreated plates): 0.9
[3]; [24]
  revertant colonies, average: 10.5
  t/c (revertant colonies treated/untreated plates): 1.0
[3]; [25]
  revertant colonies, average: 13.5
  t/c (revertant colonies treated/untreated plates): 1.3
[3]; [26]
  revertant colonies, average: 11.0
  t/c (revertant colonies treated/untreated plates): 1.0
[3]; [27]
  revertant colonies, average: 10.5
  t/c (revertant colonies treated/untreated plates): 1.0
[3]; [28]
  revertant colonies, average: 11.0
  t/c (revertant colonies treated/untreated plates): 1.0
[3]; [29]
  revertant colonies, average: 15.0
  t/c (revertant colonies treated/untreated plates): 1.4
[3]; [30]
  revertant colonies, average: 13.0
  t/c (revertant colonies treated/untreated plates): 1.2
[3]; [31]
  revertant colonies, average: 5.5
  t/c (revertant colonies treated/untreated plates): 0.5
[3]; [32]
  revertant colonies, average: 10.0
  t/c (revertant colonies treated/untreated plates): 0.9
[3]; [33]
  revertant colonies, average: 7.0
  t/c (revertant colonies treated/untreated plates): 0.6

## Cc1cc(=O)oc2c1cc(-c1ccccc1)c1occ(C)c12 [6-PhDMA]
[1]; [4]
  revertant colonies, average: 45.5
  t/c (revertant colonies treated/untreated plates): 1.0
[1]; [5]
  revertant colonies, average: 49.5
  t/c (revertant colonies treated/untreated plates): 1.1
[1]; [6]
  revertant colonies, average: 46.5
  t/c (revertant colonies treated/untreated plates): 1.0
[1]; [7]
  revertant colonies, average: 46.0
  t/c (revertant colonies treated/untreated plates): 1.0
[1]; [8]
  revertant colonies, average: 45.0
  t/c (revertant colonies treated/untreated plates): 1.0
[1]; [9]
  revertant colonies, average: 37.5
  t/c (revertant colonies treated/untreated plates): 1.0
[1]; [10]
  revertant colonies, average: 41.0
  t/c (revertant colonies treated/untreated plates): 1.1
[1]; [11]
  revertant colonies, average: 38.0
  t/c (revertant colonies treated/untreated plates): 1.0
[1]; [12]
  revertant colonies, average: 43.5
  t/c (revertant colonies treated/untreated plates): 1.1
[1]; [13]
  revertant colonies, average: 40.0
  t/c (revertant colonies treated/untreated plates): 1.0
[2]; [14]
  revertant colonies, average: 182.0
  t/c (revertant colonies treated/untreated plates): 1.1
[2]; [15]
  revertant colonies, average: 178.5
  t/c (revertant colonies treated/untreated plates): 1.0
[2]; [16]
  revertant colonies, average: 184.5
  t/c (revertant colonies treated/untreated plates): 1.1
[2]; [17]
  revertant colonies, average: 178.0
  t/c (revertant colonies treated/untreated plates): 1.0
[2]; [18]
  revertant colonies, average: 203.0
  t/c (revertant colonies treated/untreated plates): 1.2
[2]; [19]
  revertant colonies, average: 186.5
  t/c (revertant colonies treated/untreated plates): 1.0
[2]; [20]
  revertant colonies, average: 220.0
  t/c (revertant colonies treated/untreated plates): 1.1
[2]; [21]
  revertant colonies, average: 172.0
  t/c (revertant colonies treated/untreated plates): 0.9
[2]; [22]
  revertant colonies, average: 202.5
  t/c (revertant colonies treated/untreated plates): 1.0
[2]; [23]
  revertant colonies, average: 185.5
  t/c (revertant colonies treated/untreated plates): 0.9
[3]; [24]
  revertant colonies, average: 13.5
  t/c (revertant colonies treated/untreated plates): 1.3
[3]; [25]
  revertant colonies, average: 12.5
  t/c (revertant colonies treated/untreated plates): 1.2
[3]; [26]
  revertant colonies, average: 10.0
  t/c (revertant colonies treated/untreated plates): 0.9
[3]; [27]
  revertant colonies, average: 10.0
  t/c (revertant colonies treated/untreated plates): 0.9
[3]; [28]
  revertant colonies, average: 14.0
  t/c (revertant colonies treated/untreated plates): 1.3
[3]; [29]
  revertant colonies, average: 13.5
  t/c (revertant colonies treated/untreated plates): 1.2
[3]; [30]
  revertant colonies, average: 14.5
  t/c (revertant colonies treated/untreated plates): 1.3
[3]; [31]
  revertant colonies, average: 7.5
  t/c (revertant colonies treated/untreated plates): 0.7
[3]; [32]
  revertant colonies, average: 8.0
  t/c (revertant colonies treated/untreated plates): 0.7
[3]; [33]
  revertant colonies, average: 9.0
  t/c (revertant colonies treated/untreated plates): 0.8
